In patent US4839355A, “Tricyclic-pyridinylquinoline compounds, their preparation and use” (Sterling Drug Inc., priority 1988, dated 1989):
Converted amounts (≈) assume the structure as drawn. Read-outs that look alike come from different tables or passages of the source.

Experiments:
[1] = system: Bacteroides fragilis; experiment: In vitro antimicrobial activity, microplate dilution MIC, Bacteroides fragilis; type: cell-based
Description: (§1) The in vitro antimicrobial activity of the compounds of the invention was determined by a microplate dilution procedure. Bacterial cultures were grown in Meuller Hintom II (cation supplemented) broth (S. aureus, S. faecalis, M. luteus, E. coli and P. aeruginosa), Brain Heart Infusion (BHI) broth supplemented with 10% heat inactivated horse serum (S. penumoniae) or BHI broth supplemented with 5 mcg/ml Hemin and 0.5 mcg/ml vitamin K (B. fragilis) at 37° C. for 18-24 hrs. The cultures were grown under aerobic conditions with the exception of B. fragilis which was grown 48 hrs. under anaerobic conditions (atmosphere 5% CO2, 10% H2 and 85% N2). Resulting suspensions were diluted 1/10 in the appropriate broth or used undiluted for the inoculum. Aqueous solutions of the compounds of the invention were solubilized in dimethylsulfoxide (DMSO) at the desired concentration and 200 mcl were dispensed into the first row of wells of a sterile microplate. The compounds were then serially diluted two-fold in DMSO to give a working stock concentration range plate. The last row of wells was left compound-free receiving only DMSO to serve as a growth control. Five mcl from each well of the working stock plate was transferred to corresponding wells of a separate plate containing 95 mcl/well of the appropriate broth. All dilutions were made with either an automated dilutor or manually. The wells of microplate containing the desired compound concentrations and compound-free growth controls in broth were then inoculated using the MIC 2000 inoculator which delivers 1.5 mcl/well to give a final inoculum level of 10^4 microorganism/well or 10^5 microorganism/ml. Plates were incubated as described above and read for visible growth. The minimal inhibitory concentration (MIC: expressed in mcg/ml) of each compound tested against each test microorganism was determined as the lowest concentration of compound which prevents visible microbial growth.

[2] = system: Streptococcus pneumoniae; experiment: In vitro antimicrobial activity, microplate dilution MIC, Streptococcus pneumoniae; type: cell-based
Description: as §1

[3] = system: Micrococcus luteus; experiment: In vitro antimicrobial activity, microplate dilution MIC, Micrococcus luteus; type: cell-based
Description: as §1

[4] = system: Escherichia coli; experiment: In vitro antimicrobial activity, microplate dilution MIC, Escherichia coli; type: cell-based
Description: as §1

[5] = system: Pseudomonas aeruginosa; experiment: In vitro antimicrobial activity, microplate dilution MIC, Pseudomonas aeruginosa; type: cell-based; conditions: 10^5 microorganism/ml, read-out: MIC (minimal inhibitory concentration), PA
Description: as §1

[6] = system: Streptococcus faecalis; experiment: In vitro antimicrobial activity, microplate dilution MIC, Streptococcus faecalis; type: cell-based; conditions: Enterococcus faecalis
Description: as §1

[7] = system: Staph. aureus; experiment: In vivo antibacterial activity in female mice, Staph. aureus infection; parameters: species or system Staphylococcus aureus; conditions: mouse; for ED50: Staphylococcus aureus, 168 h, one-half hour postinfection, deaths over seven days
Description: (§2) The in vivo antibacterial activity of the compounds of the invention was determined in female mice, 18-20 grams each. Aqueous solutions of the compounds to be tested were prepared by dissolving the free acid form in dilute sodium hydroxide and diluting the solution with distilled water to the desired concentration.
(§3) Cultures of E. coli were grown in brain heart infusion broth, and the mice were inoculated intraperitoneally with 0.5 ml of the bacterial test inoculum suspended in saline. Cultures of Staph. aureus were thawed from frozen pooled stocks and mixed with 5% mucin. A 0.5 ml preparation was used to infect mice by i.p. inoculation.
(§4) The mice were medicated subcutaneously (sc) or orally (po) with 0.5 ml of the test compound solution one-half hour postinfection. Deaths were recorded daily for seven days. Fifty percent protective dose values (PD50) were calculated using probit analyis.

[8] = system: E. coli; experiment: In vivo antibacterial activity in female mice, E. coli infection; parameters: species or system Escherichia coli; conditions: mouse; for ED50: Escherichia coli, 168 h, one-half hour postinfection, deaths over seven days; for in vivo activity against E. coli compared with compounds P and Q: Table II
Description: as §2, §3, §4

[9] = system: bacteria; experiment: In vitro antimicrobial activity, overall comparison over the bacterial panel; type: cell-based; conditions: for improved in vitro activity against named organisms / in vitro activity compared with prior art compounds P and Q: Table I MICs; for improved in vitro activity against named organisms: Staph. aureus, Strep. faecalis, Strep. pneumoniae
Description: as §1

[10] = system: Staphylococcus aureus; experiment: In vitro antimicrobial activity, microplate dilution MIC, Staphylococcus aureus; type: cell-based; conditions: for MIC: Staphylococcus aureus, in vitro; for in vitro activity relative to compound P / in vitro activity relative to compound Q: from Table I MICs
Description: as §1

[11] = Serum levels in monkeys after oral dosing; type: in vivo; conditions: 25 mg/kg oral
[12] = 10^5 microorganism/ml, anaerobic, read-out: MIC (minimal inhibitory concentration), BF
[13] = 10^5 microorganism/ml, 10% horse serum in BHI broth, read-out: MIC (minimal inhibitory concentration), SP
[14] = 10^5 microorganism/ml, read-out: MIC (minimal inhibitory concentration), ML
[15] = 10^5 microorganism/ml, read-out: MIC (minimal inhibitory concentration), EC
[16] = Streptococcus faecalis, 10^5 microorganism/ml, read-out: MIC (minimal inhibitory concentration), SF
[17] = po, read-out: PD50 (fifty percent protective dose), Staph. aureus, po
[18] = sc, read-out: PD50 (fifty percent protective dose), Staph. aureus, sc
[19] = po, read-out: PD50 (fifty percent protective dose), E. coli, po
[20] = sc, read-out: PD50 (fifty percent protective dose), E. coli, sc
[21] = 10^5 microorganism/ml, read-out: MIC (minimal inhibitory concentration), SA
[22] = Strep. pneumoniae, read-out: MIC

| SMILES | MIC [1, 12] [µg/mL] | MIC [2, 13] [µg/mL] | MIC [3, 14] [µg/mL] | MIC [4, 15] [µg/mL] | MIC [5] [µg/mL] | MIC [6, 16] [µg/mL] | ED50 [7, 17] [mg/kg] | ED50 [7, 18] [mg/kg] | ED50 [8, 19] [mg/kg] | ED50 [8, 20] [mg/kg] | in vivo activity against E. coli compared with compounds P and Q [8] | MIC [10, 21] [µg/mL] | further results |
| --- | --- | --- | --- | --- | --- | --- | --- | --- | --- | --- | --- | --- | --- |
| Cc1cc(-c2c(F)c(F)c3c(=O)c(C(=O)O)cn4c3c2OC[C@@H]4C)cc(C)n1 [A, (S)-10-(2,6-Dimethyl-4-pyridinyl)-8,9-difluoro-3-methyl-7-oxo-2,3-dihydro-7H-pyrido[1,2,3-de][1,4]benzoxazine-6-carboxylic acid] | 1 (≈ 2.59 µM) | 0.06 (≈ 0.155 µM) | 1 (≈ 2.59 µM) | 0.125 (≈ 0.324 µM) | 8 (≈ 20.7 µM) | 0.125 (≈ 0.324 µM) | 0.13 | 0.05 | 12.3 | 4.7 | approximately equal in activity to compound Q and slightly less active than compound P against E. coli | 0.016 (≈ 0.0414 µM) | improved in vitro activity against named organisms [9]: improved activity against Staph. auerus, Strep. faecalis and Strip. pneumoniae |
| Cc1cc(-c2c(F)cc3c(=O)c(C(=O)O)cn4c3c2OC[C@@H]4C)cc(C)n1 [B, (S)-10-(2,6-Dimethyl-4-pyridinyl)-9-fluoro-3-methyl-7-oxo-2,3-dihydro-7H-pyrido[1,2,3-de][1,4]benzoxazine-6-carboxylic acid] | 0.25 (≈ 0.679 µM) | 0.03 (≈ 0.0814 µM) | 0.25 (≈ 0.679 µM) | 0.03 (≈ 0.0814 µM) | 4 (≈ 10.9 µM) | 0.06 (≈ 0.163 µM) | 0.03 | 0.02 | 3 | 1.4 | approximately equal in activity to compound Q and slightly less active than compound P against E. coli | 0.008 (≈ 0.0217 µM) | serum levels [11]: high and prolonged serum levels; half-life ([11]; monkey, serum): 16 h; Cmax ([11]; monkey, serum, read-out: maximum concentration (serum)): 25000 ng/mL; Tmax ([11]; monkey, serum, read-out: time of maximum concentration (serum)): 3.5 h; in vitro activity compared with prior art compounds P and Q [9]: substantilly more active than the prior art compounds (P and Q) against all of the organisms except E. coli and P. aeruginosa; in vitro activity relative to compound P ([10]; Staph. aureus): thirty times as active as compound P; in vitro activity relative to compound Q ([10]; Staph. aureus): four times as active as compound Q |
| CC[C@H]1COc2c(-c3cc(C)nc(C)c3)c(F)cc3c(=O)c(C(=O)O)cn1c23 [Compound C, (S)-10-(2,6-Dimethyl-4-pyridinyl)-9-fluoro-3-ethyl-7-oxo-2,3-dihydro-7H-pyrido[1,2,3-de][1,4]benzoxazine-6-carboxylic acid] | 0.5 (≈ 1.31 µM) | 0.06 (≈ 0.157 µM) | 0.5 (≈ 1.31 µM) | 0.016 (≈ 0.0418 µM) | 4 (≈ 10.5 µM) | 0.125 (≈ 0.327 µM) | 0.41 | 0.2 | 32.9 | 8.8 |  | < 0.004 | more active than compound P against Staph. aureus ([7]; subcutaneous): fifteen; more active than compound Q against Staph. aureus ([7]; subcutaneous): three times more active; improved in vitro activity against named organisms [9]: improved activity against Staph. auerus, Strep. faecalis and Strip. pneumoniae |
| Cc1cc(-c2c(F)cc3c(=O)c(C(=O)O)cn4c3c2SC[C@@H]4C)cc(C)n1 [D, (S)-10-(2,6-Dimethyl-4-pyridinyl)-9-fluoro-3-methyl-7-oxo-2,3-dihydro-7H-pyrido[1,2,3-de][1,4]benzothiazine-6-carboxylic acid] | 0.06 (≈ 0.156 µM) | 0.016 (≈ 0.0416 µM) | 0.06 (≈ 0.156 µM) | 0.06 (≈ 0.156 µM) | 2 (≈ 5.2 µM) | 0.06 (≈ 0.156 µM) | 0.03 | 0.03 | 2.6 | 1.5 | approximately equal in activity to compound Q and slightly less active than compound P against E. coli | 0.004 (≈ 0.0104 µM) | in vitro activity compared with prior art compounds P and Q [9]: substantilly more active than the prior art compounds (P and Q) against all of the organisms except E. coli and P. aeruginosa; in vitro activity relative to compound P ([10]; Staph. aureus): sixty times as active as compound P; in vitro activity relative to compound Q ([10]; Staph. aureus): eight times as active as compound Q |
| Cc1cc(-c2c(F)c(SCc3ccccc3)c3c(=O)c(C(=O)O)cn4c3c2OC[C@@H]4C)cc(C)n1 [Example 4, (S)-8-(Benzylthio)-10-(2,6-dimethyl-4-pyridinyl)-9-fluoro-3-methyl-7-oxo-2,3-dihydro-7H-pyrido[1,2,3-de][1,4]-benzoxazine-6-carboxylic acid] |  |  |  |  |  |  |  |  |  |  |  |  | MIC ([1]; B. fragilis, read-out: MIC): 32 µg/mL (≈ 65.2 µM); MIC [2, 22]: 8 µg/mL (≈ 16.3 µM); MIC ([3]; M. luteus, read-out: MIC): 32 µg/mL (≈ 65.2 µM); MIC ([4]; E. coli, read-out: MIC): 8 µg/mL (≈ 16.3 µM); MIC ([6]; Strep. faecalis, read-out: MIC): 32 µg/mL (≈ 65.2 µM); antibacterial activity in vitro ([9]; in words): appreciable antibacterial activity in vitro; MIC ([10]; Staph. aureus, read-out: MIC): 1 µg/mL (≈ 2.04 µM) |
| CCOC(=O)c1cn2c3c(c(-c4cc(C)nc(C)c4)c(F)cc3c1=O)OC[C@H]2C [Example 6(e), Ethyl (R)-10-(2,6-dimethyl-4-pyridinyl)-9-fluoro-3-methyl-7-oxo-2,3-dihydro-7H-pyrido[1,2,3-de][1,4]benzoxazine-6-carboxylate] |  |  |  |  |  |  |  |  |  |  |  |  | MIC ([1]; B. fragilis, read-out: MIC): 16 µg/mL (≈ 40.4 µM); MIC [2, 22]: 1 µg/mL (≈ 2.52 µM); MIC ([4]; E. coli, read-out: MIC): 1 µg/mL (≈ 2.52 µM); MIC ([6]; Strep. faecalis, read-out: MIC): 4 µg/mL (≈ 10.1 µM); antibacterial activity in vitro ([9]; in words): substantial antibacterial activity in vitro; in vitro activity compared with the (S)-isomer (compound B) ([9]; in words): less active than the (S)-isomer (compound B); MIC ([10]; Staph. aureus, read-out: MIC): 0.25 µg/mL (≈ 0.631 µM) |
| CC1COc2c(N3CCN(C)CC3)c(F)cc3c(=O)c(C(=O)O)cn1c23 (stereo not shown) [P, 9-Fluoro-3-methyl-10-(4-methyl-1-piperazinyl)-7-oxo-2,3-dihydro-7H-pyrido[1,2,3-de][1,4]benzoxazine-6-carboxylic acid, reference compound] | 0.5 (≈ 1.38 µM) | 0.25 (≈ 0.692 µM) | 2 (≈ 5.53 µM) | 0.008 (≈ 0.0221 µM) | 0.5 (≈ 1.38 µM) | 2 (≈ 5.53 µM) | 6.5 | 3 | 1.17 | 0.48 |  | 0.25 (≈ 0.692 µM) |  |
| CCn1cc(C(=O)O)c(=O)c2cc(F)c(-c3cc(C)nc(C)c3)cc21 [Q, 7-(2,6-Dimethyl-4-pyridinyl)-1-ethyl-6-fluoro-1,4-dihydro-4-oxo-3-quinolinecarboxylic acid, reference compound] | 2 (≈ 5.88 µM) | 0.25 (≈ 0.735 µM) | 0.5 (≈ 1.47 µM) | 0.06 (≈ 0.176 µM) | 4 (≈ 11.8 µM) | 0.25 (≈ 0.735 µM) | 1.38 | 0.71 | 8.24 | 5.39 |  | 0.03 (≈ 0.0881 µM) |  |
